{
  "source": "patent USRE38332E1",
  "about": "“Selected soluble esters of hydroxyl-containing indolocarbazoles” (Cephalon, Inc., priority 1995, dated 2003)",
  "data": [
    {"test_system": "not listed separately", "experiment": "Solubility of the esters at 1 mg/ml in water and buffer solutions", "conditions": "10 mM Tris buffer pH 9", "quoted_text": "Indolocarbazole esters were dissolved in water, dimethylsulfoxide (DMSO) and the following buffer solutions to determine solubility and to observe conversion to indolocarbazole I-5. Samples were analyzed by HPLC using UV detection at 290 nm.\nSolution 2 was a 10 mM acetate buffer at pH 4 which was prepared by weighing 0.68 g of sodium acetate 3H2O into 500 ml of water and adjusting the pH with acetic acid.\nSolution 3 was a 10 mM phosphate buffer, pH 7, which was prepared by weighing 0.30 g of monobasic sodium phosphate and 0.36 g of dibasic sodium phosphate into 500 ml of water, stirring until completely dissolved, and adjusting the pH with hydrochloric acid.\nSolution 4 was a 10 mM Tris buffer, pH 9, which was prepared by weighing 0.79 g of Tris (tris(hydroxymethyl)aminomethane hydrochloride) into 500 ml of water, stirring until completely dissolved, and adjusting the pH with sodium hydroxide.\nSample solutions were prepared by weighing 0.5-1 mg of the indolocarbazole ester into an amber 1.5 ml autosampler vial, to which the appropriate quantity of one of the buffer solutions was added, in order to achieve a final concentration of 1 mg/ml. The sample solutions were vortexed and sonicated for 10 minutes. Fifty μl aliquots were placed into 1.5 ml amber autosampler vials. The reaction was quenched at a selected time interval by addition of 450 μl DMSO to the vial.", "values": [
      {"smiles": "COC1(COC(=O)C(N)CCCCN)CC2OC1(C)n1c3ccccc3c3c4c(c5c6ccccc6n2c5c31)C(=O)NC4.Cl.Cl", "note": "(stereo not shown) [Example 1, (I-5)-Lysinate Dihydrochloride]", "solubility in Tris buffer": "completely soluble"},
      {"smiles": "COC1(COC(=O)C(C)N)CC2OC1(C)n1c3ccccc3c3c4c(c5c6ccccc6n2c5c31)C(=O)NC4.Cl", "note": "(stereo not shown) [Example 3, (I-5)-Alaninate Hydrochloride]", "solubility in Tris buffer": "not completely soluble"},
      {"smiles": "COC1(COC(=O)CCC(=O)O)CC2OC1(C)n1c3ccccc3c3c4c(c5c6ccccc6n2c5c31)C(=O)NC4", "note": "(stereo not shown) [Example 4, (I-5)-Hydrogen Succinate]", "solubility in Tris buffer": "not completely soluble"},
      {"smiles": "COC1(COC(=O)c2cccnc2)CC2OC1(C)n1c3ccccc3c3c4c(c5c6ccccc6n2c5c31)C(=O)NC4.Cl", "note": "(stereo not shown) [Example 5, (I-5)-Pyridine-3-carboxylate Hydrochloride]", "solubility in Tris buffer": "not completely soluble"},
      {"smiles": "COC1(COC(=O)c2ccc[n+](C)c2)CC2OC1(C)n1c3ccccc3c3c4c(c5c6ccccc6n2c5c31)C(=O)NC4.[I-]", "note": "(stereo not shown) [Example 6, (I-5)-Pyridine-3-carboxylate Methiodide]", "solubility in Tris buffer": "not completely soluble"}
    ]},
    {"test_system": "not listed separately", "experiment": "Solubility of the esters at 1 mg/ml in water and buffer solutions", "conditions": "10 mM acetate buffer pH 4", "values": [
      {"smiles": "COC1(COC(=O)C(N)CCCCN)CC2OC1(C)n1c3ccccc3c3c4c(c5c6ccccc6n2c5c31)C(=O)NC4.Cl.Cl", "note": "(stereo not shown) [Example 1, (I-5)-Lysinate Dihydrochloride]", "solubility in acetate buffer": "completely soluble"},
      {"smiles": "COC1(COC(=O)C(C)N)CC2OC1(C)n1c3ccccc3c3c4c(c5c6ccccc6n2c5c31)C(=O)NC4.Cl", "note": "(stereo not shown) [Example 3, (I-5)-Alaninate Hydrochloride]", "solubility in acetate buffer": "completely soluble"},
      {"smiles": "COC1(COC(=O)CCC(=O)O)CC2OC1(C)n1c3ccccc3c3c4c(c5c6ccccc6n2c5c31)C(=O)NC4", "note": "(stereo not shown) [Example 4, (I-5)-Hydrogen Succinate]", "solubility in acetate buffer": "not completely soluble"},
      {"smiles": "COC1(COC(=O)c2cccnc2)CC2OC1(C)n1c3ccccc3c3c4c(c5c6ccccc6n2c5c31)C(=O)NC4.Cl", "note": "(stereo not shown) [Example 5, (I-5)-Pyridine-3-carboxylate Hydrochloride]", "solubility in acetate buffer": "not completely soluble"},
      {"smiles": "COC1(COC(=O)c2ccc[n+](C)c2)CC2OC1(C)n1c3ccccc3c3c4c(c5c6ccccc6n2c5c31)C(=O)NC4.[I-]", "note": "(stereo not shown) [Example 6, (I-5)-Pyridine-3-carboxylate Methiodide]", "solubility in acetate buffer": "not completely soluble"}
    ]},
    {"test_system": "not listed separately", "experiment": "Solubility of the esters at 1 mg/ml in water and buffer solutions", "conditions": "10 mM phosphate buffer pH 7", "values": [
      {"smiles": "COC1(COC(=O)C(N)CCCCN)CC2OC1(C)n1c3ccccc3c3c4c(c5c6ccccc6n2c5c31)C(=O)NC4.Cl.Cl", "note": "(stereo not shown) [Example 1, (I-5)-Lysinate Dihydrochloride]", "solubility in phosphate buffer": "completely soluble"},
      {"smiles": "COC1(COC(=O)C(C)N)CC2OC1(C)n1c3ccccc3c3c4c(c5c6ccccc6n2c5c31)C(=O)NC4.Cl", "note": "(stereo not shown) [Example 3, (I-5)-Alaninate Hydrochloride]", "solubility in phosphate buffer": "not completely soluble"},
      {"smiles": "COC1(COC(=O)CCC(=O)O)CC2OC1(C)n1c3ccccc3c3c4c(c5c6ccccc6n2c5c31)C(=O)NC4", "note": "(stereo not shown) [Example 4, (I-5)-Hydrogen Succinate]", "solubility in phosphate buffer": "not completely soluble"},
      {"smiles": "COC1(COC(=O)c2cccnc2)CC2OC1(C)n1c3ccccc3c3c4c(c5c6ccccc6n2c5c31)C(=O)NC4.Cl", "note": "(stereo not shown) [Example 5, (I-5)-Pyridine-3-carboxylate Hydrochloride]", "solubility in phosphate buffer": "not completely soluble"},
      {"smiles": "COC1(COC(=O)c2ccc[n+](C)c2)CC2OC1(C)n1c3ccccc3c3c4c(c5c6ccccc6n2c5c31)C(=O)NC4.[I-]", "note": "(stereo not shown) [Example 6, (I-5)-Pyridine-3-carboxylate Methiodide]", "solubility in phosphate buffer": "not completely soluble"}
    ]},
    {"test_system": "not listed separately", "experiment": "Solubility of the esters at 1 mg/ml in water and buffer solutions", "conditions": "water (Solution 1)", "values": [
      {"smiles": "COC1(COC(=O)C(N)CCCCN)CC2OC1(C)n1c3ccccc3c3c4c(c5c6ccccc6n2c5c31)C(=O)NC4.Cl.Cl", "note": "(stereo not shown) [Example 1, (I-5)-Lysinate Dihydrochloride]", "solubility in water": "completely soluble"},
      {"smiles": "COC1(COC(=O)C(C)N)CC2OC1(C)n1c3ccccc3c3c4c(c5c6ccccc6n2c5c31)C(=O)NC4.Cl", "note": "(stereo not shown) [Example 3, (I-5)-Alaninate Hydrochloride]", "solubility in water": "completely soluble"},
      {"smiles": "COC1(COC(=O)CCC(=O)O)CC2OC1(C)n1c3ccccc3c3c4c(c5c6ccccc6n2c5c31)C(=O)NC4", "note": "(stereo not shown) [Example 4, (I-5)-Hydrogen Succinate]", "solubility in water": "not completely soluble"},
      {"smiles": "COC1(COC(=O)c2cccnc2)CC2OC1(C)n1c3ccccc3c3c4c(c5c6ccccc6n2c5c31)C(=O)NC4.Cl", "note": "(stereo not shown) [Example 5, (I-5)-Pyridine-3-carboxylate Hydrochloride]", "solubility in water": "not completely soluble"},
      {"smiles": "COC1(COC(=O)c2ccc[n+](C)c2)CC2OC1(C)n1c3ccccc3c3c4c(c5c6ccccc6n2c5c31)C(=O)NC4.[I-]", "note": "(stereo not shown) [Example 6, (I-5)-Pyridine-3-carboxylate Methiodide]", "solubility in water": "not completely soluble"}
    ]},
    {"test_system": "not listed separately", "experiment": "In vitro metabolism of I-5 esters in human plasma", "assay_type": "in vitro ADME", "conditions": "5000 ng/mL, 37° C.", "description": "(§1) Freshly-collected plasma from male Sprague-Dawley rats and presumably-healthy drug-free male humans was pooled and immediately frozen. The plasma was kept frozen at −90° C. and each aliquot was thawed only once for use in incubations. Stock solutions of the indolocarbazole esters were prepared in DMSO and were used to prepare standard curves in plasma that had been boiled to two minutes. Boiled plasma was divided into 500 μL aliquots, mixed with an aliquot of the internal standard, and spiked with the respective stock indolocarbazole ester solutions to prepare the standard curve. Thawed plasma was divided into 500 μL aliquots, placed in screw-cap vials, mixed with internal standard, and spiked with stock solutions of the respective indolocarbazole esters to yield a nominal concentration of 5000 ng/mL.\n(§2) Incubations were then performed at 37° C. in a shaking water bath for 0, 0.5, 1, 2, 5, 10, 15, 30, and 60 minutes and quenched by addition of 5 mL methylene chloride. All tubes (standards and experimentals) were extracted for 15 minutes by shaking, and centrifuged. The methylene chloride layer was removed, dried under a stream of nitrogen, and reconstituted in DMSO. Fifty μL of the reconstituted extracts were analyzed by reverse-phase HPLC with detection at 290 nm. The mobile phase and gradient conditions are given below: […]", "values": [
      {"smiles": "COC1(COC(=O)C(N)CCCCN)CC2OC1(C)n1c3ccccc3c3c4c(c5c6ccccc6n2c5c31)C(=O)NC4.Cl.Cl", "note": "(stereo not shown) [Example 1, (I-5)-Lysinate Dihydrochloride]", "hydrolysis, conversion to indolocarbazole I-5": "hydrolyzed rapidly"},
      {"smiles": "COC1(COC(=O)C(C)N)CC2OC1(C)n1c3ccccc3c3c4c(c5c6ccccc6n2c5c31)C(=O)NC4.Cl", "note": "(stereo not shown) [Example 3, (I-5)-Alaninate Hydrochloride]", "hydrolysis, conversion to indolocarbazole I-5": "not detectable"}
    ]},
    {"test_system": "ChAT activity in spinal cord cultures", "experiment": "Effect of indolocarbazole esters on ChAT activity in dissociated spinal cord cultures", "assay_type": "cell-based, rat", "conditions": "500 nM", "description": "(§3) The effect of indolocarbazole esters of the invention on ChAT activity was assayed in dissociated spinal cord cultures prepared from fetal rats. ChAT is the enzyme that catalyzes the synthesis of the neurotransmitter acetylcholine, and it is a specific biochemical marker for cholinergic neurons. In the spinal cord, the large majority of cholinergic neurons are motor neurons. Assay of this enzyme may thus be used as an indication of the effects of a factor (or factors) on the survival and/or differentiation of cholinergic neurons and/or regulation of this enzyme. The procedure used for the assay is that described in Example 6 of WO 94/02488. Fourteen esters were tested in the spinal cord ChAT assay to determine their relative efficacy, and the results are summarized in Table 4.", "values": [
      {"smiles": "COC1(COC(=O)C(N)CCCCN)CC2OC1(C)n1c3ccccc3c3c4c(c5c6ccccc6n2c5c31)C(=O)NC4.Cl.Cl", "note": "(stereo not shown) [Example 1, (I-5)-Lysinate Dihydrochloride]", "Spinal Cord ChAT Activity (% of Control) 500 nM": "150 % of Control"},
      {"smiles": "COC1(COC(=O)C(C)N)CC2OC1(C)n1c3ccccc3c3c4c(c5c6ccccc6n2c5c31)C(=O)NC4.Cl", "note": "(stereo not shown) [Example 3, (I-5)-Alaninate Hydrochloride]", "Spinal Cord ChAT Activity (% of Control) 500 nM": "151 % of Control"},
      {"smiles": "COC1(COC(=O)CCC(=O)O)CC2OC1(C)n1c3ccccc3c3c4c(c5c6ccccc6n2c5c31)C(=O)NC4", "note": "(stereo not shown) [Example 4, (I-5)-Hydrogen Succinate]", "Spinal Cord ChAT Activity (% of Control) 500 nM": "150 % of Control"},
      {"smiles": "COC1(COC(=O)c2cccnc2)CC2OC1(C)n1c3ccccc3c3c4c(c5c6ccccc6n2c5c31)C(=O)NC4.Cl", "note": "(stereo not shown) [Example 5, (I-5)-Pyridine-3-carboxylate Hydrochloride]", "Spinal Cord ChAT Activity (% of Control) 500 nM": "137 % of Control"},
      {"smiles": "COC1(COC(=O)c2ccc[n+](C)c2)CC2OC1(C)n1c3ccccc3c3c4c(c5c6ccccc6n2c5c31)C(=O)NC4.[I-]", "note": "(stereo not shown) [Example 6, (I-5)-Pyridine-3-carboxylate Methiodide]", "Spinal Cord ChAT Activity (% of Control) 500 nM": "149 % of Control"}
    ]},
    {"test_system": "ChAT activity in spinal cord cultures", "experiment": "Effect of indolocarbazole esters on ChAT activity in dissociated spinal cord cultures", "assay_type": "cell-based, rat", "conditions": "1000 nM", "description": "as §3", "values": [
      {"smiles": "COC1(COC(=O)C(N)CCCCN)CC2OC1(C)n1c3ccccc3c3c4c(c5c6ccccc6n2c5c31)C(=O)NC4.Cl.Cl", "note": "(stereo not shown) [Example 1, (I-5)-Lysinate Dihydrochloride]", "Spinal Cord ChAT Activity (% of Control) 1000 nM": "153 % of Control"},
      {"smiles": "COC1(COC(=O)C(C)N)CC2OC1(C)n1c3ccccc3c3c4c(c5c6ccccc6n2c5c31)C(=O)NC4.Cl", "note": "(stereo not shown) [Example 3, (I-5)-Alaninate Hydrochloride]", "Spinal Cord ChAT Activity (% of Control) 1000 nM": "132 % of Control"},
      {"smiles": "COC1(COC(=O)CCC(=O)O)CC2OC1(C)n1c3ccccc3c3c4c(c5c6ccccc6n2c5c31)C(=O)NC4", "note": "(stereo not shown) [Example 4, (I-5)-Hydrogen Succinate]", "Spinal Cord ChAT Activity (% of Control) 1000 nM": "154 % of Control"},
      {"smiles": "COC1(COC(=O)c2cccnc2)CC2OC1(C)n1c3ccccc3c3c4c(c5c6ccccc6n2c5c31)C(=O)NC4.Cl", "note": "(stereo not shown) [Example 5, (I-5)-Pyridine-3-carboxylate Hydrochloride]", "Spinal Cord ChAT Activity (% of Control) 1000 nM": "139 % of Control"},
      {"smiles": "COC1(COC(=O)c2ccc[n+](C)c2)CC2OC1(C)n1c3ccccc3c3c4c(c5c6ccccc6n2c5c31)C(=O)NC4.[I-]", "note": "(stereo not shown) [Example 6, (I-5)-Pyridine-3-carboxylate Methiodide]", "Spinal Cord ChAT Activity (% of Control) 1000 nM": "150 % of Control"}
    ]},
    {"test_system": "ChAT activity in spinal cord cultures", "experiment": "Effect of indolocarbazole esters on ChAT activity in dissociated spinal cord cultures", "assay_type": "cell-based, rat", "conditions": "10 μM", "description": "as §3", "values": [
      {"smiles": "COC1(COC(=O)c2cccnc2)CC2OC1(C)n1c3ccccc3c3c4c(c5c6ccccc6n2c5c31)C(=O)NC4.Cl", "note": "(stereo not shown) [Example 5, (I-5)-Pyridine-3-carboxylate Hydrochloride]", "increase of ChAT activity over control": "*This compound increases ChAT activity 169% over control at 10 μM"}
    ]},
    {"test_system": "not listed separately", "experiment": "In vitro metabolism of I-5 esters in rat plasma", "assay_type": "in vitro ADME", "conditions": "5000 ng/mL, 37° C.", "description": "as §1, §2", "values": [
      {"smiles": "COC1(COC(=O)C(C)N)CC2OC1(C)n1c3ccccc3c3c4c(c5c6ccccc6n2c5c31)C(=O)NC4.Cl", "note": "(stereo not shown) [Example 3, (I-5)-Alaninate Hydrochloride]", "maximum rates of hydrolysis": "more extensively hydrolyzed"}
    ]}
  ]
}
